In data set [1] the test system is rat hepatocytes. Nature of the data set: In vitro metabolic stability in rat hepatocytes. Type of data set: in vitro ADME. Particulars: 1 μM, 37° C., up to 60 min. On the procedure:
The linear or macrocyclic compounds 1-14 and 23-26 (SEQ ID NOs: […]) were incubated in concentration 1 μM with pooled cryopreserved rat hepatocytes (Sprague-Dawley, male; 400 pl, 1.0 million viable cells/ml for compounds 1-8, 11-12 and 23-26 or 100 μl, 0.1 million viable cells/ml for compounds 9-10 and 13-14) for different time points (0, 10, 20, 40 or 60 min) at 37° C. The cell density and viability were determined by trypan blue exclusion method. The incubation was terminated by acetonitrile. The collected samples were centrifuged for 20 min at 2272×g and analyzed. The samples were analyzed is by UHPLC/PDA with high resolution mass spectrometry (QE-Orbitrap-MS on DDI mode) (compounds 1-8, 11-12 and 23-26) or HHPLC-ToF mass spectrometry (for compounds 9-and 13-14) to monitor disappearance of the compound. Verapramil 1 μM was used as a disappearance rate control. The analytical method was optimized by using the parent compounds for optimum chromatographic properties (peak shape and retention) and mass spectrometric ionization. The Ion chromatograms were extracted from the total ion chromatograms using calculated monoisotopic accurate masses with 5 mDa window. Disappearance was based on LC/MS peak areas, marking 0 min as 100%. The first-order rate constants k (min-1) of the metabolism were obtained from the slope of time versus logarithm (% of remaining compound) plot using Excel software. The in vitro half-life (t1/2) of study compound is defined as: t1/2In2/k. Calculated half-life is based on compound disappearance in rat liver hepatocytes.

The subject of data set [2] is human hepatocytes. Nature of the data set: In vitro metabolic stability in human hepatocytes. Type of data set: in vitro ADME. The note with it: 1 μM, 37° C., up to 60 min. On the procedure:
The linear or macrocyclic compounds 1-8, 11-14 and 23-26 (SEQ ID NOs: 1-8, 11-14 and 23-26) were incubated in concentration 1 μM with pooled cryopreserved human hepatocytes (mixed gender; 400 pl, 1.0 million viable cells/ml) for different time points (0, 20, 40 or 60 min) at 37° C. The cell density and viability were determined by trypan blue is exclusion method. The incubation was terminated by acetonitrile. The collected samples were centrifuged for 20 min at 2272×g and analyzed. The samples were analyzed by UPLC/PDA with high resolution mass spectrometry (QE-Orbitrap-MS on DDI mode) to monitor disappearance of the compound. Verapramil 1 μM was used as a disappearance rate control. The analytical method was optimized by using the parent compounds for optimum chromatographic properties (peak shape and retention) and mass spectrometric ionization. The Ion chromatograms were extracted from the total ion chromatograms using calculated monoisotopic accurate masses with 5 mDa window. Disappearance was based on LC/MS peak areas, marking 0 min as 100%. The first-order rate constants k (min-1) of the metabolism were obtained from the slope of time versus logarithm (% of remaining compound) plot using Excel software. The in vitro half-life (t1/2) of study compound is defined as: t1/2In2/k. Calculated half-life is based on compound disappearance in human liver hepatocytes.

The test system of data set [3] is dopaminergic TH-positive neurons injured with MPP+. In words: Neuroprotective effect on dopaminergic TH-positive neurons injured with MPP+ (primary mesencephalic culture). In kind it is cell-based, rat. The note with it: MPP+ injured TH-positive neurons. On the procedure:
Neuroprotective effects of compounds 1-26 (SEQ ID NO: 1-26) were tested in an in vitro model in which primary cultures of rat embryonic mesencephalic neurons were stressed with MPP+ , the active metabolite of neurotoxin 1-methyl-4-phenyl-1,2,3,6-tetrahydropyridine (MPTP). MPP+ kills dopaminergic (TH-positive) neurons via a variety of toxic mechanisms, including mitochondrial dysfunction, generation of peroxynitrite, oxidative stress, ER stress and induction of apoptosis.
Culture of mesencephalic neurons. Rat dopaminergic neurons were cultured as described by Visanji et al., 2008. Briefly, the midbrains obtained from 15-day-old rat embryos (Janvier, France) were dissected, and the ventral portion of the mesencephalic flexure, a region of the developing brain rich in dopaminergic neurons, was used for the cell preparations. The midbrain cells were dissociated by trypsinization for 20 min at 37° C. (solution at a final concentration of 0.05% trypsin and 0.02% EDTA). The reaction was stopped by adding Dulbecco's modified Eagle's medium (DMEM) containing DNAase I grade II (0.5 mg/mL) and 10% of fetal calf serum (FCS). Cells were then mechanically dissociated by 3 passages through a 10 ml pipette. Cells were then centrifuged at 180×g for 10 min at +4° C. on a layer of BSA (3.5%) in L15 medium. The cell pellets were re-suspended in a defined culture serum-free medium consisting of Neurobasal (Invitrogen) supplemented with B27 (2%), L-glutamine (2 mM) and 2% of PS solution and 1Ong/ml of Brain-derived neurotrophic factor (BDNF) and 1 ng/mL of Glial-Derived Neurotrophic Factor (GDNF). Viable cells were counted in a Neubauer cytometer using the trypan blue exclusion test. The cells were seeded at a density of 40 000 cells/well in 96 well-plates (pre-coated with poly-L-lysine) and maintained in a humidified incubator at 37° C. in 5% CO2/95% air atmosphere. Half of the medium was changed every 2 days with fresh medium. On 96-wells plates, only 60 wells are used. To avoid any edge effect, the first and last lines and columns were not used for culture and were filled with sterile water.
CDNF as well as linear and macrocyclic compounds […] (SEQ ID NOs: 1-26) were tested. On day 6 of culture, the compounds were dissolved in culture medium and then pre-is incubated with mesencephalic neurons for 4 hours before the MPP+ application. Four hours after the preincubation of the compounds, MPP+ was added to a final concentration of 4 pM, diluted in control medium still in presence of compounds for 48 h.
48 h after intoxication, the cells were fixed by a solution of 4% paraformaldehyde in PBS, pH 7.3 for 20 min at room temperature. The cells were washed twice in PBS, and then permeabilized and non-specific sites were blocked with a solution of PBS containing 0.1% of saponin and 1% FCS for 15 min at room temperature. Next, the cells were incubated with (a) a monoclonal antibody anti-Tyrosine Hydroxylase (TH) produced in mouse at dilution of 1:10000 and with (b) a polyclonal antibody anti-alpha-synuclein (α-syn) antibody produced in rabbit at dilution of 1:400 in PBS containing 1% FCS, 0.1% saponin, for 2 h at room temperature.
48 h after intoxication, the cell culture supernatant was removed, and the cells fixed by a solution of 4% paraformaldehyde in PBS, pH 7.3 for 20 min at room temperature. The cells were washed twice in PBS, and then permeabilized and non-specific sites were blocked with a solution of PBS containing 0.1% of saponin and 1% FCS for 15 min at room temperature. Then, the cells were incubated with a) a monoclonal Anti-Tyrosine Hydroxylase (TH) antibody produced in mouse at dilution of 1:10000 in PBS containing 1% FCS, 0.1% saponin, for 2 hours at room temperature, and b) a polyclonal anti-postsynaptic density protein-95 (PSD-95) antibody produced in rabbit at dilution of 1:200 in PBS containing 1% FCS, 0.1% saponin, for 2 h at room temperature. This antibody stains specifically synapses. […]

The structures appear in SMILES notation. Bridge positions count the residues as written; N and C are the ends. Peptide text beside a SMILES is read from it.

For `CC[C@H](C)[C@@H]1NC(=O)[C@H](CCC(N)=O)NC(=O)[C@H](CCCCN)NC(=O)[C@H](CC(C)C)NC(=O)[C@H](CCC(=O)O)NC(=O)[C@H](C)NC(=O)[C@H](C(C)C)NC(=O)[C@H](CCCNC(=N)N)NC(=O)[C@H](CCSC)NC(=O)[C@H](CCCCN)NC(=O)[C@H](CCCNC(=N)N)NC(=O)[C@H](CC(C)C)NC(=O)[C@H](CC(=O)O)NC(=O)[C@H](C(C)C)NC(=O)[C@H](CCC(=O)O)NC(=O)[C@H](C)NC(=O)[C@@H]2CSSC[C@H](NC(=O)[C@H](CCC(=O)O)NC(=O)[C@H](CCC(=O)O)NC(=O)CNC(=O)[C@H](Cc3c[nH]c4ccccc34)NC(=O)[C@H](CO)NC(=O)[C@H](Cc3c[nH]cn3)NC(=O)[C@H](CC(C)C)NC1=O)C(=O)N[C@@H](CCCNC(=N)N)C(=O)N[C@@H](C)C(=O)N2` [Compound 2] (cyclo(ACAEVDLRKMRVAELKQILHSWGEECR); disulfide 2-26), the “stability in rat hepatocytes as compared to linear counterpart” value in data set [1] is “significantly improved stability”. Besides, the “stability in human hepatocytes as compared to linear counterpart” value in data set [2] is listed as “significantly improved stability”. Moreover, the “potency of macrocyclic peptide versus its linear counterpart” value in data set [3] was “comparable”.

Take `CC[C@H](C)[C@@H]1NC(=O)[C@H](CCC(N)=O)NC(=O)[C@H](CCCCN)NC(=O)[C@H](CC(C)C)NC(=O)[C@H](CCC(=O)O)NC(=O)[C@H](C)NC(=O)[C@H](C(C)C)NC(=O)[C@H](CCCNC(=N)N)NC(=O)[C@H](CCSC)NC(=O)[C@H](CCCCN)NC(=O)[C@H](CCC(=O)O)NC(=O)[C@H](C)NC(=O)[C@@H]2CSSC[C@H](NC(=O)[C@H](CCC(=O)O)NC(=O)[C@H](CCC(=O)O)NC(=O)CNC(=O)[C@H](Cc3c[nH]c4ccccc34)NC(=O)[C@H](CO)NC(=O)[C@H](Cc3c[nH]cn3)NC(=O)[C@H](CC(C)C)NC1=O)C(=O)N[C@@H](CCCNC(=N)N)C(=O)N[C@@H](C)C(=O)N2` [Compound 6] (cyclo(ACAEKMRVAELKQILHSWGEECR); disulfide 2-22): in data set [1], the “stability in rat hepatocytes as compared to linear counterpart” value is listed as “significantly improved stability”. Moreover, the “stability in human hepatocytes as compared to linear counterpart” value in data set [2] is “significantly improved stability”. Besides, the “potency of macrocyclic peptide versus its linear counterpart” value in data set [3] was “comparable”.

In the case of `CC[C@H](C)[C@@H]1NC(=O)[C@H](CCCCN)NC(=O)[C@H](CCCCN)NC(=O)[C@H](CC(C)C)NC(=O)[C@H](CCC(=O)O)NC(=O)[C@H](CCCCN)NC(=O)[C@H](C(C)C)NC(=O)[C@H](CCCNC(=N)N)NC(=O)[C@H](CC(C)C)NC(=O)[C@H](CCCCN)NC(=O)[C@H](CCC(=O)O)NC(=O)[C@H](C)NC(=O)[C@@H]2CSSC[C@H](NC(=O)[C@H]([C@@H](C)O)NC(=O)[C@H](CCC(=O)O)NC(=O)CNC(=O)[C@H](Cc3c[nH]c4ccccc34)NC(=O)[C@H](CC(=O)O)NC(=O)[C@H](CC(=O)O)NC(=O)[C@H](CC(C)C)NC1=O)C(=O)N[C@@H](CCCCN)C(=O)NCC(=O)N2` [Compound 8] (cyclo(AEKLRVKELKKILDDWGETCKGC); disulfide 20-23), the “stability in rat hepatocytes as compared to linear counterpart” value in data set [1] is listed as “significantly improved stability”. In addition, the “potency of macrocyclic peptide versus its linear counterpart” value in data set [3] is recorded as “comparable”.

Take `CC[C@H](C)[C@@H]1NC(=O)[C@H](CO)NC(=O)[C@H](CCCCN)NC(=O)[C@H](CCC(=O)O)NC(=O)[C@H](C)NC(=O)[C@@H]2CSSC[C@H](NC(=O)[C@H]([C@@H](C)O)NC(=O)[C@H](CCC(=O)O)NC(=O)CNC(=O)[C@H](Cc3c[nH]c4ccccc34)NC(=O)[C@H](CC(=O)O)NC(=O)[C@H](CC(=O)O)NC(=O)[C@H](CC(C)C)NC1=O)C(=O)N[C@@H](CCCCN)C(=O)NCC(=O)N2` [Compound 10, KSILDDWGETCKGCAE] (cyclo(AEKSILDDWGETCKGC); disulfide 13-16): the “stability in rat hepatocytes as compared to linear counterpart” value in data set [1] is “significantly improved stability”. Moreover, the “potency of macrocyclic peptide versus its linear counterpart” value in data set [3] is reported as “comparable”.

With `C[C@@H]1NC(=O)[C@@H]2CSSC[C@H](NC(=O)[C@H](CCC(=O)O)NC(=O)[C@H](CCC(=O)O)NC(=O)CNC(=O)[C@H](Cc3c[nH]c4ccccc34)NC(=O)[C@H]([C@@H](C)O)NC(=O)[C@H](CCCCN)NC(=O)[C@H](CCC(=O)O)NC1=O)C(=O)N[C@@H](CCCNC(=N)N)C(=O)N[C@@H](C)C(=O)N2` [Compound 12, WGEECRACAEKT] (cyclo(ACAEKTWGEECR); disulfide 2-11), the “stability in rat hepatocytes as compared to linear counterpart” value in data set [1] is recorded as “significantly improved stability”. Moreover, in data set [2], the “stability in human hepatocytes as compared to linear counterpart” value is reported as “significantly improved stability”. Further, the “potency of macrocyclic peptide versus its linear counterpart” value in data set [3] was “comparable”.

Take `C[C@@H]1NC(=O)[C@@H]2CSSC[C@H](NC(=O)[C@H]([C@@H](C)O)NC(=O)[C@H](CCC(=O)O)NC(=O)CNC(=O)[C@H](Cc3c[nH]c4ccccc34)NC(=O)[C@H](CO)NC(=O)[C@H](CCCCN)NC(=O)[C@H](CCC(=O)O)NC1=O)C(=O)N[C@@H](CCCCN)C(=O)NCC(=O)N2` [Compound 14, WGETCKGCAEKS] (cyclo(AEKSWGETCKGC); disulfide 9-12): the “stability in rat hepatocytes as compared to linear counterpart” value in data set [1] is “significantly improved stability”. Moreover, the “stability in human hepatocytes as compared to linear counterpart” value in data set [2] is “significantly improved stability”. Moreover, in data set [3], the “potency of macrocyclic peptide versus its linear counterpart” value is “comparable”.

These data come from patent publication US20230391841A1, “MACROCYCLIC PEPTIDES” (Herantis Pharma OYJ, priority 2019, published 2023).
